Results: patent publication US9481885B2, “Methods and compositions related to miR-21 and miR-29a, exosome inhibition, and cancer metastasis” (Ohio State Innovation Foundation, priority 2011, dated 2016)

Key:
LLC cells = assay: Lung multiplicities in LLC-injected B6 mice treated with GW4869, with exosome rescue; type: in vivo, mouse; details: WT B6 mice injected with LLC cells; GW4869 i.p. 1.25 mg/kg/d for 5 d
Procedure: Finally, to assess the role of miRNAs released from lung cancer exosomes in TLR7 activation and in the metastatic process, the expression was silenced of miR-16 or of miR-21 and -29a combined in LLC cells by Locked Nucleic Acid (LNA) anti-miRNA inhibitors. After anti-miRNA transfection, the levels of the silenced miRNAs were reduced in the exosomes derived from these cells (FIG. 7F). The transfected cells were injected into the tail vein of B6 mice, and lung multiplicities were counted. […] We further investigated which miRNAs are expressed in cancer cells and adjacent normal lung tissues in mice injected with anti-scrambled LLCs or anti-miR-21/29a LLCs. Cancer cells in lung tumors developed by mice injected with anti-scrambled LLC were positive for the anti-scrambled oligonucleotide.
The in vivo rescue experiment with LLC cells was conducted in 15 male, 7-wk-old B6 mice. Mice were injected with 1.8×10^6 LLC cells in the tail vein in 300 μL of volume (T0). After 4 d (T4), i.p. injections were started for 10 mice with GW4869 (1.25 mgkg^−1d^−1), an inhibitor of exosome secretion also able to reduce the content of miRNAs in secreted exosomes, and of five mice with DMSO (a solvent of GW4869) as a control, daily for 5 d consecutively. […] All mice were killed at T18, necropsy was performed, and lung multiplicities were counted.

TLR8-HEK-293 cells = assay: NF-κB activation in TLR8-HEK-293 cells treated with LLC exosomes, with or without Bafilomycin A; type: cell-based, human; details: TLR8-HEK-293 cells pretreated with 10 nM Bafilomycin A; P<0.0005
Procedure: Next, LLC cells were injected into the tails of WT and TLR7^−/− mice and the overall survival of the animals and number of lung multiplicities after necropsy was assessed. […] For the experiment with Bafilomycin A, TLR8-HEK-293 cells were seeded in a 24-well plate at a density of 200,000 cells per well. The next day cells were preincubated with 10 nM Bafilomycin A (Sigma) for 30 min and then were treated for 24 h with exosomes purified from LLC cells in the presence or absence of 10 nM Bafilomycin A. Cell supernatants were collected and harvested, and the QUANTI-Blue Assay was performed. NF-κB activity was assessed by QUANTI-Blue Assay (Invivogen). HEK-Blue-TLR7 and TLR8 293 cells allow verification of the activation of NF-κB after the stimulation of the respective TLRs. Both these cell lines were obtained by co-transfection of the TLR7 and 8 genes and an optimized secreted embryonic alkaline phosphatase reporter gene (SEAP) under the control of the […] minimal promoter fused to five NF-κB and AP-1-binding sites into HEK-293 cells. […] Levels of SEAP can be easily determined with QUANTI-Blue, a detection medium that turns purple/blue in the presence of alkaline phosphatase. […] The plate was then incubated at 37° C. for 1-3 h and SEAP levels were determined by reading the plate with a spectrophotometer at 620-655 nm (SpectraMax, Molecular Devices).

In the case of `O=C(/C=C/c1ccc(/C=C/C(=O)Nc2ccc(C3=NCCN3)cc2)cc1)Nc1ccc(C2=NCCN2)cc1` [GW4869], the “number of lung multiplicities” value (LLC cells) was “significantly lower”.

With `CO/C1=C\C(C)=C\[C@@H](C)[C@@H](O)[C@@H](C)C/C(C)=C/C=C/[C@H](OC)[C@@H]([C@@H](C)[C@@H](O)[C@H](C)[C@@]2(O)C[C@@H](O)[C@H](C)[C@@H](C(C)C)O2)OC1=O` [Bafilomycin A] the “NF-κB activation by LLC-derived exosomes in the presence of Bafilomycin A” value (TLR8-HEK-293 cells) was “significantly reduced”.
